Test results as given in US10676437B2, “Fluorinated 4-(substituted amino)phenyl carbamate derivatives” (SciFluor Life Sciences, Inc., priority 2017, dated 2020).

What was measured:
Type in all cases: cell-based
human Kv7.2/7.3 channels = target: T1, human Kv7.2/7.3 channels (Homo sapiens, UniProt O43525+O43526); assay: Syncropatch automated patch clamp, activation of recombinantly expressed human Kv7.2/7.3 (KCNQ2/3) channels in CHO cells; settings: shift in G-V midpoint (Δ V0.5) vs concentration
T1 construct: expressed in transfected cells
Experimental: The in vitro effects of a compound of the present application recombinantly expressed human Kv7.2/7.3 channels are assessed on Syncropatch high throughput electrophysiology platform.
CHO cells stably expressing human Kv7.2/7.3 channels were cultured in Ham's F-12 media (Hyclone, Cat # SH30022.02) supplemented with 10% Fetal Bovine Serum, 1×MEM non-essential amino acids, and 400 μg/ml G418 at 37° C. in 5% CO2. On the day of Syncropatch, the cells were washed once in DPBS (Hyclone, Cat # SH30028.03) for approximately 30 seconds. 1 ml of 1×0.015% Trypsin-EDTA GIBCO Cat #25300-054) was added and swirled around to cover the bottom of the flask, and allowed to sit on the cells for about 4 minutes (approximately 90% of the cells were lifted by light tapping of the flask). 10 ml of cold media (Ham's F-12 media (Hyclone, Cat # SH30022.02) supplemented with 10% Fetal Bovine Serum, 1×MEM non-essential amino acids, and 400 μg/ml G418) was added to inactivate Trypsin. The cells were then triturated until a single cell suspension was achieved, and the cell count was performed. The cells were then diluted to a concentration of 5×10^5/ml and placed into the “cell hotel” on the deck of the Syncropatch at 10° C. for about 1 hour to recover. 40 μL of the cell suspension was dispensed into each well of a 384-well Syncropatch chip by the onboard pipettor at the beginning of each Syncropatch assay.
The compounds to be tested were dissolved in DMSO to give 10 mM stock solutions. […]
Kv7 channels were evaluated using a voltage protocol in which cells were voltage-clamped at a holding potential of −110 mV. […]
Data was collected on the Syncropatch platform using PatchControl software (Nanion) and processed and analyzed using DataControl Software (Nanion). Normalized percent activation was calculated and activation curves were fit with a Boltzmann function to determine the midpoint voltage of activation (G-V midpoint) for both pre-compound and post-compound conditions for each of the 384-wells of a sealchip with Pipeline Pilot (Accelrys). […]

KCNQ3/5 = KCNQ3/5 (Homo sapiens, UniProt O43525+Q9NR82); assay: Automated patch clamp, activation of KCNQ3/5 channels; settings: for Selectivity KCNQ3/5 EC50 / KCNQ2/3 EC50: ratio of EC50 values
Experimental: (§1) Electrophysiological studies of the compounds were performed using the Nanion SyncroPatch automated patch clamp platform.
(§2) Kv7 channels were evaluated using a voltage protocol in which cells were voltage-clamped at a holding potential of −110 mV. Potassium currents were activated with a series of voltage steps from −110 mV to +50 mV in 10 mV intervals with 5.5 seconds between successive voltage steps. Each voltage step was 3 seconds in duration and immediately followed by a 1 second voltage step to −120 mV to generate an inward “tail” current to allow construction of activation (G-V) curves by plotting normalized peak tail current versus the potential of the activating voltage step. To obtain normalized values, peak current amplitudes for successive depolarizing pulses were normalized against the maximum tail current amplitude generated at +50 mV (Tatulian et al., Journal of Neuroscience 2001, 21 (15)).
(§3) Data was collected on the Syncropatch platform using PatchControl software (Nanion) and processed and analyzed using DataControl Software (Nanion). Normalized percent activation was calculated and activation curves were fit with a Boltzmann function to determine the midpoint voltage of activation (G-V midpoint) for both pre-compound and post-compound conditions for each of the 384-wells of a sealchip with Pipeline Pilot (Accelrys). The difference in G-V midpoint between pre-compound and post-compound conditions (Δ V0.5) was plotted as a function of concentration and concentration-response curves were fit with a three-parameter logistic equation {Y=Bottom+(Top−Bottom)/(1+10^(Log EC50−X))} for determination of the EC50 (Graphpad Prism).

KCNQ4 = KCNQ4 (Homo sapiens, UniProt P56696); assay: Automated patch clamp, activation of KCNQ4 channels; settings: for Selectivity KCNQ4 EC50 / KCNQ2/3 EC50: ratio of EC50 values
Experimental: as §1, §2, §3

| EC50 (human Kv7.2/7.3 channels) [µM] | EC50 (KCNQ3/5) [µM] | Selectivity KCNQ3/5 EC50 / KCNQ2/3 EC50 (KCNQ3/5) | EC50 (KCNQ4) [µM] | Selectivity KCNQ4 EC50 / KCNQ2/3 EC50 (KCNQ4) | Structure (SMILES) |
| --- | --- | --- | --- | --- | --- |
| 0.1 to 1 | 1 to 10 | III (III: 5 to <10) | ≥ 10 | VI (VI: ≥100) | Cc1c(F)c(N2CCc3cc(F)ccc3C2)c(F)c(C)c1NC(=O)CC(C)(C)C [Compound 1, N-(3,5-difluoro-4-(6-fluoro-3,4-dihydroisoquinolin-2 (1H)-yl)-2,6-dimethylphenyl)-3,3-dimethylbutanamide] |
| < 0.1 | < 0.1 | I (I: <1) | 0.1 to 1 | IV (IV: 10 to <50) | C#CCN(Cc1ccc(F)cc1)c1ccc(NC(=O)OCC)c(N)c1 [Control, reference compound] |

| Structure (SMILES) | EC50 (human Kv7.2/7.3 channels) [µM] | EC50 (KCNQ3/5) [µM] | Selectivity KCNQ3/5 EC50 / KCNQ2/3 EC50 (KCNQ3/5) | EC50 (KCNQ4) [µM] | Selectivity KCNQ4 EC50 / KCNQ2/3 EC50 (KCNQ4) |
| --- | --- | --- | --- | --- | --- |
| Cc1c(F)c(NCc2ccc(F)cc2)c(F)c(C)c1NC(=O)CC(C)(C)C [Compound 2, N-(3,5-difluoro-4-((4-fluorobenzyl)amino)-2,6-dimethylphenyl)-3,3-dimethylbutanamide] | < 0.1 | 0.1 to 1 | IV (IV: 10 to <50) | 1 to 10 | V (V: 50 to <100) |
